Test results reported in patent publication US9234004B2, “Antimicrobial peptides” (Agency for Science, Technology and Research, priority 2010, dated 2016).
Converted amounts (≈) assume the structure as drawn. Read-outs that look alike come from different tables or passages of the source. Ends that are not written are not given here. Peptide text beside a SMILES is read from it.

Legend:
Format in all cases: cell-based
[1] = system: rat red blood cells; assay: Hemolytic activity test
Protocol: Peptides were obtained from GL Biochem (Shanghai, China), and their fidelity was further confirmed via matrix-assisted laser desorption/ionization time-of-flight mass spectroscopy (MALDI-TOF MS, Model Autoflex II, Bruker Daltonics Inc., U.S.A.), using α-cyano-4-hydroxycinnamic acid as matrix. The purity of the peptides was also tested to be more than 95% with analytical reverse phase (RP)-HPLC. α-Cyano-4-hydroxycinnamic acid (HCCA) was purchased from Sigma-Aldrich (Singapore) and used in saturated acetonitrile/water (1:1 volume ratio) after being re-crystallized. Sodium dodecyl sulphate (SDS) micelle solution (10% w/v in DI water) was obtained from 1st Base (Malaysia) and used upon dilution to the desirable concentration range. Tryptic soy broth (TSB) powder and yeast mould broth (YMB) powder were purchased from BD Diagnostics (Singapore) and used to prepare the microbial broths according to the manufacturer's instructions. Phosphate-buffered saline solution at 10× concentration was purchased from 1st Base (Malaysia) and used after dilution to the desired concentration. Ethanol (analytical grade, 99%) and glutaraldehyde (synthetic grade, 50% in H2O) were purchased from Sigma Aldrich (Singapore) and used as received. […] Red blood cells used in the experiments were obtained from rats maintained at the Animal Handling Units of the Biomedical Research Centers (Singapore). Human peripheral blood mononuclear cells (PBMCs) were extracted from healthy blood donors and maintained with RPMI medium supplemented with 10% lowendotoxin fetal bovine serum (FBS) and 1% penicillin-streptomycin. Granulocyte macrophage-colony stimulating factor (GM-CSF) and lipopolysaccharide were purchased from Sigma-Aldrich and used as received.
Fresh red blood cells were washed with PBS for three times, and were subjected to 25 times dilution with PBS to reach a concentration of approximately 4% (in volume) of the blood cells. The red blood cell suspension (100 μL) was placed into a 96-well cell culture plate and mixed with 100 μL of the antimicrobial peptide solution in PBS at concentrations of 0.98, 1.95, 3.90, 7.81, 15.63, 31.25, 62.5, 125, 250, 500 mg/L. The mixture was then incubated at 37° C. for 1 hour to allow for the hemolysis process to take place. At the end of incubation time, the non-hemolysed red blood cells were separated by centrifugation at 13000 g for 5 minutes. Aliquots (100 μL) of the supernatant were transferred into a new 96-well plate, and the hemoglobin release was measured by checking the UV-absorbance of the samples at 576 nm using a microplate reader (TECAN, Switzerland). Two controls were provided in this assay: an untreated red blood cell suspension in PBS was used as the negative control, and a solution containing red blood cells lysed with 0.1% Triton-X was used as the positive control. Each assay was performed in 6 replicates, and the data were expressed as means and standard deviations of the 6 replicates. Percentage of hemolysis was calculated using the following formula: Hemolysis (%)=[(O.D.576 nm of the treated sample−O.D.576 nm of the negative control)/(O.D.576 nm of positive control−O.D.576 nm of negative control)]×100%. Field Emission-Scanning Electron Microscopy (FE-SEM) Analysis of Bacterial Cells

[2] = system: C. albicans
Protocol: (§1) Microbial cells were firstly re-constituted from its lyophilized form according to the manufacturer's protocol. Bacterial cells were cultured in tryptic soy broth (TSB) at 37° C., and yeast cells were cultured in yeast mould broth (YMB) at room temperature under constant shaking at 100 rpm. Broth containing an antimicrobial peptide was prepared at various concentrations (0.98, 1.95, 3.90, 7.81, 15.63, 31.25, 62.5, 125, 250, 500 mg/L) and transferred into a 96-well tissue culture plate (100 μL/well). Microorganism was first inoculated overnight to enter its log growth-phase. An equal volume of microorganism solution (100 μL) was added into each well of the 96-well plate containing the antimicrobial peptide. Prior to this mixing, the concentration of microorganism solution was adjusted to give an initial optical density (O.D.) reading of 0.1-0.2 at 600 nm wavelength. The growth of the microorganism was observed upon introducing the antimicrobial peptide by measuring the O.D. readings at 2 hour intervals for up to 8 hours. […] Broth containing microbial cells was used as the negative control, and each test was carried out in 6 replicates. The standard deviations of the 6 readings were reported as the error bars.

[3] = system: B. subtilis
Protocol: as §1

[4] = system: E. coli
Protocol: as §1

[5] = system: P. aeruginosa
Protocol: as §1

[6] = rat red blood cells, 37° C., 1 hour
[7] = 8 hours incubation, yeast mould broth, room temperature
[8] = 8 hours incubation, tryptic soy broth, 37° C.

Molecule | HC50 (50% hemolytic concentration) ([1]; red cells of rat, 1 h) [mg/L] | MIC C. albicans ([2]; 8 h) [µg/mL] | MIC B. subtilis ([3]; 8 h) [µg/mL] | MIC E. coli ([4]; 8 h) [µg/mL] | MIC P. aeruginosa ([5]; 8 h) [µg/mL] | HC50 (50% hemolytic concentration) [1, 6] [mg/L] | MIC C. albicans [2, 7] [µg/mL] | MIC B. subtilis [3, 8] [µg/mL] | MIC E. coli [4, 8] [µg/mL] | MIC P. aeruginosa ([5]; 8 hours incubation) [µg/mL] | hemolysis at the MIC against B. subtilis [1] | hemolysis at the MIC level for C. albicans [1]
CC(C)C[C@H](NC(=O)[C@H](CC(C)C)NC(=O)[C@H](CCCCN)NC(=O)[C@H](CCCCN)NC(=O)[C@H](CC(C)C)NC(=O)[C@H](CC(C)C)NC(=O)[C@@H](N)CS)C(=O)N[C@@H](CCCCN)C(=O)N[C@@H](CCCCN)C(=O)N[C@@H](CS)C(N)=O [CLLKKLLKKC-NH2] (H-CLLKKLLKKC-NH2) | >2500 | 250 (≈ 210 µM) | 125 (≈ 105 µM) | 225 (≈ 189 µM) | 125 (≈ 105 µM) |  |  |  |  |  |  | 
CC(C)C[C@H](NC(=O)[C@H](CC(C)C)NC(=O)[C@H](CCCCN)NC(=O)[C@H](CCCCN)NC(=O)[C@H](CC(C)C)NC(=O)[C@H](CC(C)C)NC(=O)[C@H](CCCCN)NC(=O)[C@H](CCCCN)NC(=O)[C@H](CC(C)C)NC(=O)[C@H](CC(C)C)NC(=O)[C@@H](N)CS)C(=O)N[C@@H](CCCCN)C(=O)N[C@@H](CCCCN)C(=O)N[C@@H](CS)C(N)=O [CLLKKLLKKLLKKC-NH2] (H-CLLKKLLKKLLKKC-NH2) |  |  |  |  |  | ~82 | 125 (≈ 74.8 µM) | 31 (≈ 18.5 µM) | 125 (≈ 74.8 µM) | 125 (≈ 74.8 µM) |  | 
AARRAARRAARR-NH2 [(AARR)3, AARRAARRAARR-NH2] | >500 | >500 | >500 | >500 |  |  |  |  |  |  |  | 
FFRRFFRR-NH2 [(FFRR)2, FFRRFFRR-NH2] | >500 | >500 | 125 | >500 |  |  |  |  |  |  |  | 
FFRRFFRRFFRR-NH2 [(FFRR)3, FFRRFFRRFFRR-NH2] | >500 | 125 | 31.3 | >500 |  |  |  |  |  |  | less than 5% | 12-24%
FFRRFFRRFFRRFFRR-NH2 [(FFRR)4, FFRRFFRRFFRRFFRR-NH2] | ~26 | >50 | 20 | >50 |  |  |  |  |  |  | around 50% | 
LLKKLLKKC-NH2 [LLKKLLKKC-NH2] | >2500 | 250 | 125 | >500 | 63 |  |  |  |  |  |  | 
LLKKLLKKLLKK-NH2 [(LLKK)3, LLKKLLKKLLKK-NH2] | >500 | 125 | 31.3 | >500 |  |  |  |  |  |  | less than 5% | 
LLKKLLKKLLKKC-NH2 [LLKKLLKKLLKKC-NH2] |  |  |  |  |  | ~402 | 63 | 16 | 150 | 16 |  | 
LLRRLLRRLLRR-NH2 [(LLRR)3, LLRRLLRRLLRR-NH2] | >500 | 500 | 15.6 | >500 |  |  |  |  |  |  | less than 5% | 12-24%
LLRRLLRRLLRRLLRR-NH2 [(LLRR)4, LLRRLLRRLLRRLLRR-NH2] | ~12 | >50 | 10 | >50 |  |  |  |  |  |  | around 50% | 
MLLKKLLKKLLKKM-NH2 [MLLKKLLKKLLKKM-NH2] |  |  |  |  |  | ~158 | 125 | 31 | 250 | 31 |  | 
MLLKKLLKKM-NH2 [MLLKKLLKKM-NH2] | >2500 | 500 | 125 | >500 | 500 |  |  |  |  |  |  | 
